Assay [1] concerns the target Axl (Homo sapiens (Human), UniProt P30530). Description: TAM Enzymatic Assay (HTRF), phosphor-Axl. It is filed as biochemical. Conditions: 5.1 nM phosphor-Axl, 60 min room temperature. The protocol: Autophosphorylation of Axl was carried out by incubating the recombinant Axl protein (Life Technologies, PV4275) in buffer containing 50 mM Tris, pH7.5, 0.2 mg/ml Axl, 5 mM ATP, 20 mM MgCl2 and 2 mM DTT at room temperature for 1 hour.
(§1) The kinase assay buffer contained 50 mM HEPES, pH7.5, 10 mM MgCl2, 1 mM EGTA, 0.01% NP-40 and 2 mM DTT. 0.1 ul test compounds dissolved in DMSO were transferred from compound plates to white 384-well assay plates (Greiner […] plates). […] 4 ul enzyme solution (or assay buffer for the enzyme blank) was added to the appropriate wells in each plate, and then 4 ul/well substrate solution was added to initiate the reaction. The plate was protected from light and incubated at room temperature for 60 min. […] The plate was incubated for 1 h at room temperature, and HTRF (homogenous time resolved fluorescence) signal was measured on a PHERAstar FS plate reader (BMG labtech). Percentage of inhibition was calculated for each concentration and IC50 value was generated from curve fitting with GraphPad Prism software.
(In TR-FRET formats the signal depends on donor and acceptor labels being close together.)

Assay [2] addresses Tyro3 (Homo sapiens (Human), UniProt Q06418). Nature of the assay: TAM Enzymatic Assay (HTRF), Tyro3. It counts as biochemical. Conditions: 0.366 nM Tyro3, 60 min room temperature. The procedure: as §1
Assay [3] deals with c-Mer (Homo sapiens (Human), UniProt Q12866). Nature of the assay: TAM Enzymatic Assay (HTRF), c-Mer. It counts as biochemical. Conditions: 0.0625 nM c-Mer, 60 min room temperature. The procedure: as §1
Sequence of c-Mer (Q12866 21-999): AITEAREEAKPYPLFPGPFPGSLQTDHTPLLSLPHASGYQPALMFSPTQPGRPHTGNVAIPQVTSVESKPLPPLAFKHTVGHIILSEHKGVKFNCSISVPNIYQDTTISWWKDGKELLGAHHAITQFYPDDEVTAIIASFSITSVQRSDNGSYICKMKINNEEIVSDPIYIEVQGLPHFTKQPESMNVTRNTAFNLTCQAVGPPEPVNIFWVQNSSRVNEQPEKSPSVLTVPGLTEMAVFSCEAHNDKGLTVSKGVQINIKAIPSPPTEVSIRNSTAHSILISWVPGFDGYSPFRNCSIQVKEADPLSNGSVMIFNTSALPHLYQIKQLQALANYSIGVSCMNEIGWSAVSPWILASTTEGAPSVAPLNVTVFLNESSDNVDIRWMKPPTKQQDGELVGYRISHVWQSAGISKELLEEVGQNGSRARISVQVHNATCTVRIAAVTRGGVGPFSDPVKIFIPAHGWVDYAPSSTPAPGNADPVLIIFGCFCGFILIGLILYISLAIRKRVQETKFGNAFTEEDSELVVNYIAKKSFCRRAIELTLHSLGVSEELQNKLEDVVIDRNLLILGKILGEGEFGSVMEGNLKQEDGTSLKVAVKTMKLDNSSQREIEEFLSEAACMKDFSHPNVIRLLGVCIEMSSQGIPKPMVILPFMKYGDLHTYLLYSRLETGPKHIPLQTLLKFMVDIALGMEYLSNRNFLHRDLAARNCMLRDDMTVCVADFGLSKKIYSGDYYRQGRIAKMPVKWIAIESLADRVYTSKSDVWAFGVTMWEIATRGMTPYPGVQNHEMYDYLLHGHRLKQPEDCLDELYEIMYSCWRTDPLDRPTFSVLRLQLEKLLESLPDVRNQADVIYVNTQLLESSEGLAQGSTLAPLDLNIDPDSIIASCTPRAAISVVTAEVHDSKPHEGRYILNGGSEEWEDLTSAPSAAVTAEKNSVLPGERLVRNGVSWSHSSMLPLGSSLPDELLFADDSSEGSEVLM
The test system of assay [4] is tumor models with different histologies. Conditions: Paolino et al., 2014; cited from earlier work.
The test system of assay [5] is NK cells. Conditions: Paolino et al., 2014; cited from earlier work.

The values that follow come from patent US10442810B2, “Pyrrolotriazine compounds as TAM inhibitors” (Incyte Corporation, priority 2016, dated 2019).

Sequence of Axl (P30530 26-894): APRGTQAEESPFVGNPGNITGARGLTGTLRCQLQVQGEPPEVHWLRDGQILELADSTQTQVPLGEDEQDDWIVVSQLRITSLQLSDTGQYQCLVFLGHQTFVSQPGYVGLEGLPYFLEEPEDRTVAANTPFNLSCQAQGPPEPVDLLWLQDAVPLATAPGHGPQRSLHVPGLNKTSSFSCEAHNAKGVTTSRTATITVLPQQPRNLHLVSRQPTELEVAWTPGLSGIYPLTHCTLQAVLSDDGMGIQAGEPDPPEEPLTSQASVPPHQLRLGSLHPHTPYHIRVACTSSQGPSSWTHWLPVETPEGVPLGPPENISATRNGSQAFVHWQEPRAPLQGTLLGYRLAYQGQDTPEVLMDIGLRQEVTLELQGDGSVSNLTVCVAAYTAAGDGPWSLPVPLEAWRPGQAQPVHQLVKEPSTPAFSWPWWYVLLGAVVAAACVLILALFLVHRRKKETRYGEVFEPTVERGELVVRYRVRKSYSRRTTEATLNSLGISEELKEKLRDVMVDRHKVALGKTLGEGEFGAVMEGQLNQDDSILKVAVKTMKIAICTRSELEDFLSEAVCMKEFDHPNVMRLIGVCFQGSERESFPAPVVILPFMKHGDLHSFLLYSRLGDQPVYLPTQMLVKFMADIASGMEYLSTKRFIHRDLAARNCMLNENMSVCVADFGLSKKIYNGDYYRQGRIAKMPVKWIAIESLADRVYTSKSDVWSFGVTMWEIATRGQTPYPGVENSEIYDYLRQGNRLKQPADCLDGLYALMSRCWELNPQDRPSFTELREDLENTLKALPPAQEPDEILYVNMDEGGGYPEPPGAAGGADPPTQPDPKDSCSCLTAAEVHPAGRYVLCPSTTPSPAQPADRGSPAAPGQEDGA
Sequence of Tyro3 (Q06418 41-890): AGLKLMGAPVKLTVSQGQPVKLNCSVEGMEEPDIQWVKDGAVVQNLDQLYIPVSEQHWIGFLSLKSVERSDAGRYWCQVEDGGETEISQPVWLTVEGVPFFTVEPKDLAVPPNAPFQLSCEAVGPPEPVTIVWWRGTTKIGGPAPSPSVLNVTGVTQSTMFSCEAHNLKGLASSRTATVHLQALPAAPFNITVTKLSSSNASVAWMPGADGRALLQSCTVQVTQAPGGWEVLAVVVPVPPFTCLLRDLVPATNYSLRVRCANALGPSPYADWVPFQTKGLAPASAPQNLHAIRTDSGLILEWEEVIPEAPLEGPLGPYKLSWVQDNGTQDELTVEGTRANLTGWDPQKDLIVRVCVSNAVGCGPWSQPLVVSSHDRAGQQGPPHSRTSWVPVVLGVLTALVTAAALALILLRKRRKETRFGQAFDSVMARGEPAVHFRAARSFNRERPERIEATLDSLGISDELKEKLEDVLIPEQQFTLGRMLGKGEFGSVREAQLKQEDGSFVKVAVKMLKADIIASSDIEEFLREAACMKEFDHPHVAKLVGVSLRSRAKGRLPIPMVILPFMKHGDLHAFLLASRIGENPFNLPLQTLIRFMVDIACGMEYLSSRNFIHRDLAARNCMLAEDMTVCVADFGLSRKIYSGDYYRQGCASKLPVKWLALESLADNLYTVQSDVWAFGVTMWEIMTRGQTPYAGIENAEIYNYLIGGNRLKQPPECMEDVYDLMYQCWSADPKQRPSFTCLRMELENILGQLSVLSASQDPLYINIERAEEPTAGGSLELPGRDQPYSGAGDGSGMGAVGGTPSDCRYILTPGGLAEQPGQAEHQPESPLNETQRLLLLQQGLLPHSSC

Broadly, the IC50 is the concentration needed to halve the response being measured. Low readings indicate greater potency in that assay, high ones weaker potency in that assay. Turning to `CC(O)Cn1cc(C(=O)Nc2ccc(-c3cc(C4CCN(C(=O)C5CC5)CC4)n4ncnc(N)c34)cc2)c(=O)n(-c2ccccc2)c1=O` (racemic) [Example 80, N-(4-(4-Amino-7-(1-(cyclopropanecarbonyl)piperidin-4-yl)pyrrolo[1,2-f][1,2,4]triazin-5-yl)phenyl)-1-(2-hydroxypropyl)-2,4-dioxo-3-phenyl-1,2,3,4-tetrahydropyrimidine-5-carboxamide], the IC50 is less than 5 nM in assay [1] and more than 100 nM in assay [2].

With `CC(C)n1cc(C(=O)Nc2ccc(-c3cc(C4CCN(C5CCN(C)C5=O)CC4)n4ncnc(N)c34)cc2)c(=O)n(-c2ccccc2)c1=O` (racemic) [Example 82, N-(4-(4-Amino-7-(1-(1-methyl-2-oxopyrrolidin-3-yl)piperidin-4-yl)pyrrolo[1,2-f][1,2,4]triazin-5-yl)phenyl)-1-isopropyl-2,4-dioxo-3-phenyl-1,2,3,4-tetrahydropyrimidine-5-carboxamide], the values for the IC50 in assay [1] and in assay [3] were less than 5 nM and not above 5 nM, respectively.

`CC(=O)c1cc(C(=O)Nc2ccc(-c3cc(C4CCN(C(=O)C(C)C)CC4)n4ncnc(N)c34)cc2)c(=O)n(-c2ccccc2)c1C` [Example 112, 5-Acetyl-N-(4-(4-amino-7-(1-isobutyrylpiperidin-4-yl)pyrrolo[1,2-f][1,2,4]triazin-5-yl)phenyl)-6-methyl-2-oxo-1-phenyl-1,2-dihydropyridine-3-carboxamide]: the IC50 in assay [1] was less than 5 nM; in assay [3] it was not above 5 nM; in assay [2] it was 10 to 100 nM.

As to `CCOc1cn(-c2ccc(F)cc2C)nc1C(=O)Nc1ccc(Oc2ccnc3cc(OC)c(OC)cc23)c(F)c1` [LDC1267], the “metastasis in tumor models” value in assay [4] is on record as “blocks metastasis”. Also, in assay [5], the “activation of NK cells” value is recorded as “activates NK cells”.
